Patent EP4722203A1, “3,4-DIHYDROPHTHALAZIN-1(2H)-ONE DERIVATIVE, AND PREPARATION METHOD THEREFOR AND USE THEREOF” (Academy of Military Medical Sciences, priority 2023, dated 2024)

Legend:
[1] = system: RPMI-8226 cells; experiment: Antiproliferative activity, CCK-8 assay; assay type: cell-based; conditions: Homo sapiens, 144 hours incubation, CCK-8, absorbance at 450 nm
[2] = system: human multiple myeloma RPMI-8226 xenograft tumors; experiment: In vivo activity against RPMI-8226 transplanted tumor; design: species or system NOD/SCID mice; conditions: 10 mg/kg, QD; for Tumor inhibition rate TGI (%) / Volume (mm^3), 0 days / Volume (mm^3), 12 days: oral gavage; for Tumor inhibition rate TGI (%): 12 consecutive days; for Volume (mm^3), 0 days: tumor volume at 0 days (baseline); for Volume (mm^3), 12 days: tumor volume at 12 days
Method: In this example, human multiple myeloma RPMI-8226 cell line was used as the cell model. The inhibitory effects of compounds on the growth of NOD/SCID mouse transplanted tumors of RPMI-8226 tumor cells were determined. The evaluation methods and results are described below.
Human multiple myeloma RPMI-8226 cells were routinely cultured in RPMI1640 containing 10% fetal bovine serum at 37°C in a 5% CO2 incubator. After three passages in vitro, when the cells reached over 80% confluence and the required confluence rate, the cells were digested and harvested. After washing with PBS, the cells were counted and the cell concentration was adjusted to approximately 5 × 10^7 cells/mL. The cells were then placed in 4 mL centrifuge tubes on ice for later use.
Female NOD/SCID mice aged 4-5 weeks were selected and subcutaneously inoculated with RPMI-8226 cells ectopically. The mice were held in a lateral position, the forelimb axilla was disinfected with 75% alcohol, and 100 µL of the cell suspension was injected subcutaneously into the axilla using a 1 mL syringe ([…]/100 µL).
Once the tumors grew to 90-150 mm^3, the animals were randomly grouped, 8 mice per group, and administered according to different administration methods as follows: • Model control group: administered with the same volume of Vehicle (DMSO: 0.5% sodium carboxymethyl cellulose: distilled water = 1:1:8) daily by gavage; • Test groups: administered with compound I-4 and compound I-8 solutions at 10 mg/kg (mouse body weight) daily by gavage, respectively; • Positive control group: administered with pomalidomide solution at 10 mg/kg (mouse body weight) daily by gavage.
The route of administration was oral gavage, and the administration frequency was once daily, for 12 consecutive days. The first day of administration was defined as Day 1 of the experiment. Tumor volume changes in mice were measured and recorded every two days. Tumor volume was measured using a vernier caliper, in which the major axis (a) and minor axis (b) of the tumor were measured, and the tumor volume was calculated as: tumor volume V (mm^3) = a x b^2/2. After the experiment, the mice were dissected and the tumor weight was measured. The data were entered and statistically analyzed using GraphPad Prism 6 software. The data are expressed as mean ± SEM (Standard Error of Mean), and one-way ANOVA was used. P ≤ 0.05 was considered statistically significant.

For `CN1Cc2c(NCc3ccc(CN4CCN(c5ccc(C#N)c(F)c5)CC4)cc3)cccc2C(=O)N1C1CCC(=O)NC1=O` (stereo not shown) [I-8], the IC50 [1] was 0.308 µM, the “growth of RPMI-8226 transplanted tumors (in words)” value [2] was “significantly inhibit the growth” and the “Tumor inhibition rate TGI (%)” value [2] was 80.13%. For the same compound, the “Volume (mm^3), 0 days” value [2] was 257.5 mm^3 and the “Volume (mm^3), 12 days” value [2] was 520.3 mm^3.

For `CN1Cc2c(N)cccc2C(=O)N1C1CCC(=O)NC1=O` (stereo not shown) [I-4, 3-(5-amino-3-methyl-1-oxo-3,4-dihydrophthalazin-2(1H)-yl)piperidin-2,6-dione], the “growth of RPMI-8226 transplanted tumors (in words)” value [2] was “significantly inhibit the growth”, the “Tumor inhibition rate TGI (%)” value [2] was 73.38% and the “Volume (mm^3), 0 days” value [2] was 189.0 mm^3. For the same compound, the “Volume (mm^3), 12 days” value [2] was 541.1 mm^3.

For `Nc1cccc2c1C(=O)N(C1CCC(=O)NC1=O)C2=O` (stereo not shown) [Pomalidomide, reference compound], the IC50 [1] was 0.729 µM, the “Tumor inhibition rate TGI (%)” value [2] was 47.80% and the “Volume (mm^3), 0 days” value [2] was 180.0 mm^3. The “Volume (mm^3), 12 days” value [2] was 870.4 mm^3.
